What all share (type): cell-based, human
Test [1] concerns Healthy (GM08402) fibroblasts. Briefly: RSL3 cytoprotection assay, healthy fibroblasts. To be noted: 1 μM RSL3, 10-1000 nM compound, 4 h. Here is the method: (§1) Patient fibroblasts were acquired from Coriell Institute for Medical Research (Camden, NJ, USA). GM03672 is an untransformed fibroblast cell line from a Leigh syndrome patient carrying an unknown mutation. GM08402 is an untransformed fibroblast from an apparently healthy individual. Cells were cultured at 37° C. at 5% CO2 in Eagle's Minimum Essential Medium (MEM, Corning), which was supplemented with Earle's salts and non-essential amino acids, 15% qualified fetal bovine serum, and 1% penicillin/streptomycin ([…]) to yield “Complete MEM.”
(§2) To initiate the RSL3 cytoprotection experiment, Healthy (GM08402) and Leigh syndrome (GM03672) fibroblasts were resuspended in Complete MEM. Cells were seeded at 10,000 cells per well in a clear, tissue cultured-treated, 96-well plate and incubated at 37° C. overnight. Following the incubation, supernatant was manually aspirated, taking care not to disrupt cells. […]. Luminescence units were quantified by GEN5 software on a BioTek SYNERGY neo2 plate reader (LUM filter).
(§3) RSL3 is an inhibitor of the enzyme glutathione peroxidase 4 (GPX4), which decreases lipid peroxides. RSL3 inhibition of GPX4 induces ferroptosis through iron-dependent accumulation of lipid ROS. In this assay, Healthy or Leigh fibroblasts were treated for 4 hours with RSL3 to induce ferroptosis or left untreated. Endogenous ATP levels were measured as an indicator of cellular viability using a commercially available kit (CellTiter-Glo® 2.0 Cell Viability Assay (Promega)).
(§4) […]. […] Briefly, ferroptosis was induced with 1 μM RSL3 in healthy fibroblast cells and 375 nM RSL3 in fibroblasts from a patient with Leigh syndrome.
(§5) A preliminary experiment was performed to determine the effect of RSL3 injury on the fibroblasts of a healthy individual (cell line: GM08402) and the fibroblasts of a patient diagnosed with Leigh syndrome (cell line: GM03672).

The test system of test [2] is Leigh syndrome (GM03672) fibroblasts. Description: RSL3 cytoprotection assay, Leigh fibroblasts. To be noted: 375 nM RSL3, 10-1000 nM compound, 4 h. Here is the method: as §1, §2, §3, §4, §5
The test system of test [3] is 15-lipoxygenase (15-LO). Description: 15(S)-HETE ELISA following RSL3 treatment, healthy fibroblasts. To be noted: 700 nM RSL3, 1 μM compound, 24 h. Here is the method: (§6) Samples for the 15(S)-HETE ELISA were generated by the RSL3 cytoprotection assay described above. Healthy or Leigh fibroblasts were resuspended in assay medium, seeded at 200,000 cells per well in a clear, tissue culture-treated, 24-well plate. Cells were incubated at 37° C. for 24 hours. Supernatant was aspirated from each well following the incubation.
(§7) Fibroblasts from both a healthy individual and a patient diagnosed with Leigh syndrome were examined (but not all compounds were examined in each cell type). Activation of ferroptosis has been implicated as a driver of epilepsy, which is commonly associated with Leigh syndrome. […] Kahn-Kirby et al. PLOS One. […] As a key regulator of ferroptosis, 15-LO serves as a rational therapeutic target in Leigh syndrome.

The test system of test [4] is 15-lipoxygenase (15-LO). Briefly: 15(S)-HETE ELISA following RSL3 treatment, Leigh fibroblasts. To be noted: 700 nM RSL3, 1 μM compound, 24 h. As to the method: as §6, §7
A general note: ELISA stands for enzyme-linked immunosorbent assay.

The test system of test [5] is Healthy (GM08402) fibroblasts. Description: Erastin cytoprotection assay, healthy fibroblasts. To be noted: 2 μM erastin, 250 μM FAC, 50 μM AA, 10-1000 nM compound, 24 h. Here is the method: (§8) Briefly, Healthy (GM08402) or Leigh (GM03672) fibroblasts were resuspended in assay medium, seeded at 10,000 cells per well in a clear, tissue cultured-treated, 96-well plate, and incubated at 37° C. overnight. Following the incubation, supernatant was manually aspirated from wells, taking care not to disrupt cells. Fibroblasts were co-treated in a final volume of 100 μL with 2 μM erastin (Millipore Corp., Cat #), 250 μM ferric ammonium citrate (FAC), 50 μM ascorbic acid (AA), and a titration of one of each of Compounds 1 to 4 or Vatiquinone ranging from 10 to 1000 nM. Following another 24-hour incubation at 37° C., cell viability was measured using the CellTiter-Glo Luminescent Cell Viability Kit (ProMega) per Manufacturer's instructions. Luminescence units were quantified by GEN5 software on a BioTek SYNERGY neo2 plate reader (LUM filter).
(§9) Briefly, erastin, like RSL3, is known to induce ferroptosis. […] Erastin was incubated with cell fibroblasts for 24 hours to induce ferroptosis. Cells were co-treated with each of Compounds 1 to 4, or Vatiquinone as the test articles. Test articles were administered at a range of concentrations to derive a curve. Cell viability was determined using a commercially available kit that measures ATP production. […] An increase in cell viability as determined by the assay is considered to be protective against ferroptosis.

Test [6] relates to Leigh (GM03672) fibroblasts. Briefly: Erastin cytoprotection assay, Leigh fibroblasts. To be noted: 2 μM erastin, 250 μM FAC, 50 μM AA, 10-1000 nM compound, 24 h. As to the method: as §8, §9

The structures appear in SMILES notation.

`CC1=C(C)C(=O)C(CC[C@@](C)(O)CC/C=C(\C)CCC=C(F)F)=C(C)C1=O` [Compound 2]: the “relative anti-ferroptosis properties (comparison between test articles)” value (from here on “relative anti-ferroptosis properties”) is “superior to Compounds 1, 4 and Vatiquinone” in test [1]; “superior to Compounds 1, 4 and Vatiquinone” in test [2]. In the test with 15-lipoxygenase (15-LO) [3], the “inhibition of 15-lipoxygenase (15(S)-HETE in supernatant)” value (shortened to “inhibition of 15-lipoxygenase”) was “inhibited 15-lipoxygenase”. Moreover, the “relative 15-LO inhibition (comparison between test articles)” value (shortened to “relative 15-LO inhibition”) in the test with 15-lipoxygenase (15-LO) [3] and with 15-lipoxygenase (15-LO) [4] was “roughly equivalent protective effect” in each case. Moreover, the “relative protective effect against erastin induced ferroptosis (cell viability, ATP)” value (“relative protective effect” for short) in test [5] and in test [6] was “superior in their protective effect as compared with Vatiquinone or Compounds 1 or 4” throughout.
Consider `CC1=C(C)C(=O)C(CC[C@](C)(O)CCCCCCCCC(F)(F)F)=C(C)C1=O` [Compound 4], for which the “relative anti-ferroptosis properties” value in test [1] and in test [2] was “roughly equivalent in their anti-ferroptosis properties” throughout. The “inhibition of 15-lipoxygenase” value with 15-lipoxygenase (15-LO) [3] is given as “inhibited 15-lipoxygenase”. The “relative 15-LO inhibition” value with 15-lipoxygenase (15-LO) [3] and in the test with 15-lipoxygenase (15-LO) [4] was “roughly equivalent protective effect” throughout. In addition, the “relative protective effect” value in test [5] and in test [6] was “about equally protective” each time.
Turning to `CC1=C(C)C(=O)C(CC[C@@](C)(O)COCCC[Si](C)(C)C)=C(C)C1=O` [Compound 3], the “relative anti-ferroptosis properties” value in test [1] was “superior to Compounds 1, 4 and Vatiquinone”; in test [2], “superior to Compounds 1, 4 and Vatiquinone”. Moreover, the “inhibition of 15-lipoxygenase” value in the test on 15-lipoxygenase (15-LO) [3] is reported as “inhibited 15-lipoxygenase”. The “relative 15-LO inhibition” value is “superior to Compounds 2, 4 and Vatiquinone” in the test with 15-lipoxygenase (15-LO) [3]; “roughly equivalent protective effect” with 15-lipoxygenase (15-LO) [4]. Besides, the “relative protective effect” value in test [5] and in test [6] was “superior in their protective effect as compared with Vatiquinone or Compounds 1 or 4” in each case.

Values taken from patent publication US20250090562A1, “METHODS, COMPOSITIONS AND USES RELATED TO THE TREATMENT AND PREVENTION OF LEIGH’S SYNDROME” (Stealth BioTherapeutics Inc., priority 2023, published 2025).
